Laboratory results reported in patent publication US5428139A, “Bicyclopolyazamacrocyclophosphonic acid complexes for use as radiopharmaceuticals” (The Dow Chemical Company, priority 1991, dated 1995).

Key:
[1] = Biodistribution: percent of injected dose in tissues; format: in vivo, Sprague Dawley rats; conditions: for % injected dose in bone: 100 μl complex i.v. via tail vein, bone estimated as femur x 25; for % injected dose in blood: blood assumed 7% of body weight; for % injected dose in muscle: muscle assumed 43% of body weight
Method: Sprague Dawley rats were allowed to acclimate for five days then injected with 100 μl of the complex solution via a tail vein. The rats weighed between 150 and 200 g at the time of injection. After 30 min. the rats were killed by cervical dislocation and dissected. The amount of radioactivity in each tissue was determined by counting in a NaI scintillation counter coupled to a multichannel analyzer. The counts were compared to the counts in 100 μl standards in order to determine the percentage of the dose in each tissue or organ.
The percent dose in blood was estimated assuming blood to be 7% of the body weight. The percent dose in bone was estimated by multiplying the percent dose in the femur by 25. The percent dose in muscle was estimated assuming muscle to be 43% of the body weight.

[2] = Percent metal as a complex (Sephadex column, ion exchange method); format: physicochemical; conditions: 1:1 ligand/metal, eluted with 4:1 saline (0.85% NaCl/NH4 OH)
Method: A stock ^153 SmCl3 solution was prepared by adding 2 μL of 3×10^-4 M ^153 SmCl3 in 0.1N HCl to 2 mL of a 3×10^-4 M SmCl3 carrier solution. Appropriate ligand solutions were then prepared in deionized water. The 1:1 ligand/metal complexes were then prepared by combining the ligands (dissolved in 100-500 μL of deionized water) with 2 mL of the stock ^153 SmCl3 solution, followed by through mixing to give an acidic solution (pH=2). The pH of the solution was then raised to 7.0 using 0.1N NaOH. The percent metal as a complex was then determined by passing a sample of the complex solution through a Sephadex™ G-50 column, eluting with 4:1 saline ([…]) and collecting 2×3 mL fractions. The amount of radioactivity in the combined elutions was then compared with that left on the resin (non-complexed metal is retained on the resin). […]
A solution of the ligand of Example 1 was prepared by dissolving 3.8 mg of ligand/0.517 mL of deionized water (pH=2). […] After thorough mixing, the percent metal as a complex was determined by passing a sample of the complex solution through a Sephadex™ column, eluting with 4:1 saline (0.85% NaCl/NH4 OH), and collecting 2×3 mL fractions. The amount of radioactivity in the combined elutions was then compared with that left on the resin. […] By this method complexation was determined to be 98%. […] The pH stability was then determined using the General Procedure above.

[3] = patients with metastatic bone lesions; cited from earlier work
[4] = Sprague Dawley rats, 30 min, average
[5] = Sprague Dawley rats, tail vein, 30 min, average
[6] = rats, 30 min, % dose/G printed for bone to blood ratio

## O=P(O)(O)CN1CCN(CP(=O)(O)O)Cc2cccc(n2)CN(CP(=O)(O)O)CC1.[90Y] [^90 Y-PCTMP, complex of ^90 Y-3,6,9,15-tetraazabicyclo[9.3.1]pentadeca-1(15),11,13-triene-3,6,9-trimethylenephosphonic acid]
[1]; % dose/G, rats, 30 min
  bone to blood ratio: 140
[1]; [4]
  % injected dose in bone: 29%
[1]; [5]
  % injected dose in kidney: 0.36%
  % injected dose in liver: 0.21%
  % injected dose in blood: 0.18%
  % injected dose in muscle: 0.42%
[1]; [6]
  bone to liver ratio: 76
  bone to muscle ratio: 400

## O=P(O)(O)CN1CCN(CP(=O)(O)O)Cc2cccc(n2)CN(CP(=O)(O)O)CC1.[153Sm] [^153 Sm-PCTMP, complex of ^153 Sm-3,6,9,15-tetraazabicyclo[9.3.1]pentadeca-1(15),11,13-triene-3,6,9-trimethylenephosphonic acid]
[1]; 5:1 ligand to metal ratio
  bone localization: about 60%
[1]; [4]
  % injected dose in bone: 60%
[1]; [5]
  % injected dose in kidney: 0.38%
  % injected dose in liver: 2.80%
  % injected dose in spleen: 0.16%
  % injected dose in blood: 0.29%
  % injected dose in muscle: 0.40%
[2]
  percent metal as a complex (complexation): 98%

## O=P(O)(O)CN1CCN(CP(=O)(O)O)Cc2cccc(n2)CN(CP(=O)(O)O)CC1.[166Ho] [^166 Ho-PCTMP, complex of ^166 Ho-3,6,9,15-tetraazabicyclo[9.3.1]pentadeca-1(15),11,13-triene-3,6,9-trimethylenephosphonic acid]
[1]; [4]
  % injected dose in bone: 43%
[1]; [5]
  % injected dose in kidney: 0.33%
  % injected dose in liver: 3.55%
  % injected dose in blood: 0.12%
  % injected dose in muscle: 0.34%

## Strontium-89
[3]
  blood levels: high
  lesion to normal bone ratios: low
